The source of these data is patent US20090180969A1, “PHARMACEUTICAL FORMULATION COMPRISING AN ANTICHOLINERGIC DRUG” (Chiesi Farmaceutici S.p.A., priority 2008, published 2009).

In data set [1] the test system is acetylcholine (Ach)-induced increase in Penh (airway reactivity). The data set is described as follows: Bronchodilation activity: Ach-induced increase in Penh, barometric plethysmography. The following applies: for bronchoprotective effect: 24 hours. Format: in vivo, guinea pig. Here is the method: Airway reactivity is measured using barometric plethysmography (Buxco, USA). Male guinea pigs (500-600 g) are individually placed in plexiglass chambers. After an acclimatisation period, animals are exposed to nebulised saline for 1 minute to obtain airway baseline reading. This is followed by a 1 minute challenge with nebulised acetylcholine (Ach)-2.5 mg/mL. After 60 minutes, 5 minute nebulisation of vehicle or the compound 1′ in the range 2.5-250 μM are applied and Ach challenge is then repeated after 2, 5, 24, 48 and 72 hours (h). Recording of pressure fluctuations in the chambers are taken for 5 minutes after each nebulisation and analysed to calculate Enhanced Pause (Penh). Airway reactivity is expressed as percentage increase in Penh compared with Penh values from the nebulisation of vehicle. […] After inhalation of […] of compound 1′, effect persists unchanged up to 48 hours (83.0±16.1%), while at 72 hours a residual activity of 34.8±20.9% is present.

Data set [2] can be described thus: Estimation of lung levels after nebulisation. Format: in vivo. The following applies: guinea pig, inhaled, nebulisation with submaximal bronchodilator activity, 2 hours after treatment, read-out: retained dose in the target organ (lung).

Each structure is given as a SMILES string. A value given as a limit tells only on which side of the number the result lay.

One may read the inhibition as the relative decrease from the control value, in per cent. Take `O=C(C[N+]12CCC(CC1)[C@@H](OC(=O)N(Cc1cc(F)c(F)c(F)c1)c1cccc(F)c1)C2)c1cccs1.[Cl-]` [compound 1′, (3R)-3-[[[(3-fluorophenyl)[(3,4,5-trifluorophenyl)methyl]amino]carbonyl]oxy]-1-[2-oxo-2-(2-thienyl)ethyl]-1-azoniabicyclo[2.2.2]octane chloride]: the bronchoprotective effect in data set [1] (25 μM inhalation) was found to be 63.7±15.1%; in data set [1] (50 μM inhalation), 87.1±8.7%. This compound also returned an inhibition in data set [1] (50 μM inhalation, 48 h) of 49.2±23.2%. Moreover, the “maximal effect, inhibition of Ach-induced increase in Penh” value in data set [1] (50 μM nebulised, 2 hours after end of nebulisation) amounted to 99.6±0.4. In data set [1] (250 μM inhalation, 48 hours), the “effect (inhibition of Ach-induced increase in Penh)” value amounted to 83.0±16.1%. For the same compound, the residual activity in data set [1] (250 μM inhalation, 72 hours) was 34.8±20.9%. In data set [1] (inhalation of lower concentrations (below 25 μM)), this compound showed a duration of effect of at most 5 h. In addition, the concentration at 2 h in data set [2] was about 50 ng/g.
